This is an account of results in patent publication US20240287052A1, “NOVEL OXAZOLE DERIVATIVE AND PHARMACEUTICAL COMPOSITION FOR PREVENTING OR TREATING ALLERGIC DISEASES COMPRISING THE SAME” (AZCURIS CO., LTD., priority 2021, published 2024).

A short description of data set [1]: Cellular viability, WST-8 assay, without or with human liver microsomes. Type of data set: cell-based. As for the experimental part: (§1) Human liver cancer cell line HepG2 cells were cultured in a medium (high glucose Dulbecco's Modified Eagle Medium, DMEM, HyClone) supplemented with 10% fetal bovine serum (FBS, HyClone) and 1% antibiotic in a thermostat maintained at 37° C. with 5% CO2.
(§2) HepG2 cells, which are adherent cells, were […] or presence of human liver microsomes (Gibco) and NADPH regenerating system.
(§3) Cell cultures were exchanged using […] of medium (high glucose Dulbecco's Modified Eagle Medium, DMEM, HyClone) and incubated for 24 hours.
(§4) After adding 10 μL of WST-8 (abCam), the absorbance was obtained at 460 nm after 5 seconds of orbital shaking with a microplate reader (Tecan, Spark©) 2 hours later.
(§5) The mean of the three values obtained in triplicate was calculated and expressed as % cellular viability compared to vehicle treatment.

Data set [2] has as its system Human liver cancer cell line HepG2 cells. Described as above. Type of data set: cell-based. The settings on record: for Cellular viability (%) (+) microsome: HepG2, with human liver microsomes; for Cellular viability (%) (−) microsome: HepG2, without human liver microsomes. How it is done:
as §1, §2, §3, §4, §5
Background: Liver microsomes are vesicles of endoplasmic reticulum, rich in cytochrome P450 enzymes.

The target of data set [3] is T1, IL33 and ST2 binding (Homo sapiens, UniProt O95760).
T1 sequence (O95760 112-270 limits assumed): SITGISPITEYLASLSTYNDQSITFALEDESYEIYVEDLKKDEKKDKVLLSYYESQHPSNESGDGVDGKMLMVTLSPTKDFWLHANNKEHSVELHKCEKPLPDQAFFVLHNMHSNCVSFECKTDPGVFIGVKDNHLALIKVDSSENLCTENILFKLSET
Put plainly: biochemical.
Description: (§6) 100 nM of Flag tagged IL-33 human recombinant protein was prepared in 1× coating buffer (Biolegend) and placed in a 96 well microplate (Coming) using a Multichannel pipette (Gilson) and coated for at least 12 hours at 4° C.
(§7) After washing three times with PBST (1×PBS (Welgene), 1% Tween 20 (sigma)), it was reacted with 1% BSA (Bovogen) blocking buffer for 1 hour at room temperature.
(§8) Samples containing 200 nM of His-tagged ST2 human recombinant protein and 60 μM or 200 μM Example synthetic compounds were prepared, added in equal volumes, and reacted for at least 2 hours at room temperature.
(§9) After washing three times with PBST (1×PBS (Welgene), 1% Tween 20 (sigma)), anti-His HRP (BioLegend) antibody was diluted 5000:1 and reacted for at least 1 hour at room temperature.
(§10) After washing three times with PBST (1×PBS (Welgene), 1% Tween 20 (sigma)), TMB substrate solution (Thermo) was added and reacted for more than 5 minutes. The reaction was stopped by adding 1 N HCl (Samchun) and the absorbance value was obtained at 450 nm after orbital shaking for 5 s with a Microplate reader (Tecan, Spark®).
(§11) The results derived from the program linked to the microplate reader were analyzed using an Excel program. IL33-ST2 binding rate (binding %) was calculated by averaging the three values obtained in triplicate, subtracting the positive control value, and converting the negative control value to 100%. The inhibition % value of each compound was obtained by subtracting the IL33-ST2 binding % from 100%, and the error range of triplicate was also obtained and reflected in the inhibition graph of the compound.

The target of data set [4] is T1, IL33 and ST2 binding.
Description: as §6, §7, §8, §9, §10, §11
For data set [5], the system named is IL-6 secretion in the human mast cell line HMC 1.1. Put plainly: IL-6 production inhibition assay (IL-33 stimulated HMC 1.1 cells, IL-6 ELISA). The format is cell-based. The note with it: for inhibition at 1 µM: 1 μM compound, read-out: Inhibition of hIL-6 production (%) 1 μM; for inhibition at 10 µM: 10 μM compound, read-out: Inhibition of hIL-6 production (%) 10 μM; for EC50: read-out: Inhibition of hIL-6 production EC50. A digest of the protocol:
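HMC 1.1 cells stimulated with 200 nM recombinant human IL-33 were exposed 24 hours to compound at 10 μM, 25 μM, 30 μM or 50 μM, among other levels. Secreted IL-6 was quantified by ELISA in triplicate against a standard curve and expressed as % of vehicle.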
In general terms: ELISA stands for enzyme-linked immunosorbent assay.

Where [6] appears, read: HepG2, with human liver microsomes, read-out: CC50 (μM) (+) microsome.
Where [7] appears, read: HepG2 cells, HepG2, without human liver microsomes, read-out: CC50 (μM) (−) microsome.

Usually CC50 stands for the concentration that lowers cell viability or growth by half. As usually defined, the IC50 is the concentration needed to halve the response being measured. A low value points to greater potency in that assay. One may read the inhibition as the change of the read-out against control, counted positive when it falls. A word on the EC50: it is the concentration that produces a half-maximal response.

Read-outs that look alike come from different tables or passages of the source.
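Throughout, for IC50: plate ELISA with coated Flag-tagged human IL-33 and His-tagged human ST2, bound ST2 detected by anti-His HRP and TMB absorbance at 450 nm, 2 h compound incubation.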

As for `CCOC(=O)c1nc(-c2ccc(C(F)(F)F)cc2)oc1-c1cccc([N+](=O)[O-])c1` [Compound 33, Ethyl 5-(3-nitrophenyl)-2-(4-(trifluoromethyl)phenyl)oxazole-4-carboxylate], the CC50 at 24 h in data set [1] (setting [6]) turned out to be 43.5 µM. Besides, the CC50 at 24 h in data set [1] (setting [7]) is 67 µM. For the same compound, in data set [2] (at 100 μM), the “Cellular viability (%) (+) microsome” value was 68 at % and the “Cellular viability (%) (−) microsome” value is reported as 73 at %. The compound further showed an IC50 on IL33 and ST2 binding [3] of 1.71 µM. Moreover, on IL33 and ST2 binding [4] (30 µM), the inhibition stood at 107%. The inhibition on IL33 and ST2 binding [4] (100 µM) amounted to 108%. Also, in data set [5] (24 hours), the inhibition at 1 µM was determined as 30% and the inhibition at 10 µM came out at 32%.
On to `CN(C)CCNC(=O)c1nc(-c2ccc(Cl)cc2)oc1-c1ccccc1[N+](=O)[O-]` [Compound 246, 2-(4-Chlorophenyl)-N-(2-(dimethylamino)ethyl)-5-(2-nitrophenyl)oxazole-4-carboxamide], for which, in data set [1] (setting [6]), the CC50 at 24 h was found to be 16 µM. Moreover, in data set [1] (setting [7]), the CC50 at 24 h stood at 11.8 µM. In data set [2] (at 100 μM), the “Cellular viability (%) (+) microsome” value is reported as 52 at % and the “Cellular viability (%) (−) microsome” value came to 47 at %. This compound also had an IC50 on IL33 and ST2 binding [3] of 4.78 µM. Moreover, at IL33 and ST2 binding [4] (30 µM), the inhibition was 110%. At IL33 and ST2 binding [4] (100 µM), the inhibition worked out at 112%. Moreover, in data set [5] (24 hours), the inhibition at 1 µM was 20% and the inhibition at 10 µM came out at 45%. Moreover, in data set [5], the EC50 came out at 6.15 µM.
As for `CN(C)CCNC(=O)c1nc(-c2ccc(C#N)cc2)oc1-c1ccccc1` [Compound 249, 2-(4-Cyanophenyl)-N-(2-(dimethylamino)ethyl)-5-phenyloxazole-4-carboxamide], the CC50 at 24 h in data set [1] (setting [6]) came to 29.1 µM; in data set [1] (setting [7]), 19 µM. In data set [2] (at 100 μM), the “Cellular viability (%) (+) microsome” value was 50 at %. The “Cellular viability (%) (−) microsome” value in data set [2] (at 100 μM) was determined as 43 at %. In addition, the IC50 on IL33 and ST2 binding [3] was 6.46 µM. The inhibition at IL33 and ST2 binding [4] (30 µM) came out at 81%; on IL33 and ST2 binding [4] (100 µM) it was 97%. For the same compound, in data set [5] (24 hours), the inhibition at 1 µM was 8%. Further, the inhibition at 10 µM in data set [5] (24 hours) was 35%.
As to `CSc1ccc(-c2nc(C(=O)NCCN3CCN(C)CC3)c(-c3ccccc3)o2)cc1` [Compound 272, N-(2-(4-Methylpiperazin-1-yl)ethyl)-2-(4-(methylthio)phenyl)-5-phenyloxazole-4-carboxamide], in data set [1] (setting [6]), the CC50 at 24 h was 5.6 µM. Also, the CC50 at 24 h in data set [1] (setting [7]) amounted to 4.73 µM. Besides, in data set [2] (at 100 μM), the “Cellular viability (%) (+) microsome” value is reported as 49 at % and the “Cellular viability (%) (−) microsome” value was 46 at %. The IC50 on IL33 and ST2 binding [3] was 4.17 µM. At IL33 and ST2 binding [4] (30 µM), the inhibition is 97%. In addition, the inhibition at IL33 and ST2 binding [4] (100 µM) came out at 97%. For the same compound, in data set [5] (24 hours), the inhibition at 1 µM turned out to be 52% and the inhibition at 10 µM was 79%. In addition, the EC50 in data set [5] stood at 0.42 µM.
In the case of `CN(C)CCNC(=O)c1nc(-c2ccc([N+](=O)[O-])cc2)oc1-c1ccccc1[N+](=O)[O-]` [Compound 277, N-(2-(Dimethylamino)ethyl)-5-(2-nitrophenyl)-2-(4-nitrophenyl)oxazole-4-carboxamide], the CC50 at 24 h in data set [1] (setting [6]) stood at 46.2 µM. In data set [1] (setting [7]), the CC50 at 24 h stood at 25.4 µM. For the same compound, in data set [2] (at 100 μM), the “Cellular viability (%) (+) microsome” value is recorded as 49 at % and the “Cellular viability (%) (−) microsome” value is listed as 46 at %. Further, on IL33 and ST2 binding [3], the IC50 was determined as 14.4 µM. In addition, the inhibition at IL33 and ST2 binding [4] (30 µM) amounted to 60%. Besides, on IL33 and ST2 binding [4] (100 µM), the inhibition was 111%. Further, in data set [5] (24 hours), the inhibition at 1 µM was 27% and the inhibition at 10 µM stood at 31%.
As to `CC(=O)N1CCN(CCNC(=O)c2nc(-c3ccc(C(F)(F)F)cc3)oc2-c2ccccc2[N+](=O)[O-])CC1` [Compound 284, N-(2-(4-acetylpiperazin-1-yl)ethyl)-5-(2-nitrophenyl)-2-(4-(trifluoromethyl)phenyl)oxazole-4-carboxamide], the CC50 at 24 h in data set [1] (setting [6]) came out at 46.5 µM. The CC50 at 24 h in data set [1] (setting [7]) amounted to 48.6 µM. For the same compound, in data set [2] (at 100 μM), the “Cellular viability (%) (+) microsome” value is recorded as 49 at % and the “Cellular viability (%) (−) microsome” value stood at 40 at %. The IC50 on IL33 and ST2 binding [3] amounted to 3.15 µM. Further, the inhibition on IL33 and ST2 binding [4] (30 µM) was 101%. Further, the inhibition at IL33 and ST2 binding [4] (100 µM) worked out at 104%. In data set [5] (24 hours), the inhibition at 1 µM was 27% and the inhibition at 10 µM came out at 39%.
For `CCCNC(=O)c1nc(-c2ccc(C(F)(F)F)cc2)oc1-c1cccc(SC)c1` [Compound 292, 5-(3-(Methylthio)phenyl)-N-propyl-2-(4-(trifluoromethyl)phenyl)oxazole-4-carboxamide], in data set [2] (at 135 μM), the “Cellular viability (%) (+) microsome” value came to 58 at % and the “Cellular viability (%) (−) microsome” value was determined as 55 at %. For the same compound, on IL33 and ST2 binding [3], the IC50 was found to be 1.13 µM. Besides, at IL33 and ST2 binding [4] (30 µM), the inhibition came to 110%. Besides, on IL33 and ST2 binding [4] (100 µM), the inhibition was determined as 112%. For the same compound, the inhibition at 0.1 µM in data set [5] (0.1 μM compound, 24 hours, read-out: Inhibition of hIL-6 production (%) 0.1 μM) came out at 29%. Also, in data set [5] (24 hours), the inhibition at 1 µM worked out at 39% and the inhibition at 10 µM was 42%. Besides, the EC50 in data set [5] stood at 0.09 µM.
